These compounds were tested on SU-DHL-4 cell line (assay: SU-DHL-4 cell proliferation assay (Cell Titer-Glo viability)). Details: Homo sapiens; cell viability IC50 activity level, DLBCL cell line SU-DHL-4, 120 hours post-treatment; read-out: SU-DHL-4 Act.
Type: cell-based
Procedure, shortened: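 Viability read by ATP luminescence (Cell Titer-Glo) at the start and after 120 h of growth at 37°C in 5% CO2. DLBCL cells were seeded at 500 per well with compound across 0.5 nM–10 μM in 20 points, 0.1% DMSO. A four-parameter sigmoidal fit gave IC50 as 50% of DMSO control.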

Compound	IC50
Cc1cc(CNc2cccc3c2C(=O)N(C2CCC(=O)NC2=O)C3=O)ccc1CN1CCN(c2ccc(C#N)cc2C)CC1 (stereo not shown) [Cpd 60, 4-(4-(4-((2-(2,6-dioxopiperidin-3-yl)-1,3-dioxoisoindolin-4-ylamino)methyl)-2-methylbenzyl)piperazin-1-yl)-3-methylbenzonitrile]	< 200 nM
O=C1CCC(N2C(=O)c3cccc(NCc4ccc(CN5CC(N6CCCC6)C5)cc4)c3C2=O)C(=O)N1 (stereo not shown) [Cpd 216, 2-(2,6-dioxopiperidin-3-yl)-4-(4-((3-(pyrrolidin-1-yl)azetidin-1-yl)methyl)benzylamino)isoindoline-1,3-dione]	< 200 nM
O=C1CCC(N2C(=O)c3cccc(NCc4ccc(CN5CC6(CCOCC6)C5)cc4F)c3C2=O)C(=O)N1 (stereo not shown) [Cpd 221, 4-(4-(7-oxa-2-azaspiro[3.5]nonan-2-ylmethyl)-2-fluorobenzylamino)-2-(2,6-dioxopiperidin-3-yl)isoindoline-1,3-dione]	< 200 nM
Cc1cc(CNc2cccc3c2C(=O)N(C2CCC(=O)NC2=O)C3=O)ccc1CN1CCC(n2cccn2)CC1 (stereo not shown) [Cpd 56, 4-(4-((4-(1H-pyrazol-1-yl)piperidin-1-yl)methyl)-3-methylbenzylamino)-2-(2,6-dioxopiperidin-3-yl)isoindoline-1,3-dione]	< 200 nM
Cc1cc(CNc2cccc3c2C(=O)N(C2CCC(=O)NC2=O)C3=O)ccc1CN1CCC2(CCC2)C1 (stereo not shown) [Cpd 76, 4-(4-(6-azaspiro[3.4]octan-6-ylmethyl)-3-methylbenzylamino)-2-(2,6-dioxopiperidin-3-yl)isoindoline-1,3-dione]	200 to 500 nM
O=C1CCC(N2C(=O)c3cccc(NCc4ccc(CN5CCN(c6ccc(F)cc6)CC5)cc4)c3C2=O)C(=O)N1 (stereo not shown) [Cpd 2, 2-(2,6-dioxopiperidin-3-yl)-4-(4-((4-(4-fluorophenyl)piperazin-1-yl)methyl)benzylamino)isoindoline-1,3-dione]	501 to 750 nM
Cc1cc(CNc2cccc3c2C(=O)N(C2CCC(=O)NC2=O)C3=O)ccc1CN1CCN(c2cccc(C(N)=O)n2)CC1 (stereo not shown) [Cpd 182, 6-(4-(4-((2-(2,6-dioxopiperidin-3-yl)-1,3-dioxoisoindolin-4-ylamino)methyl)-2-methylbenzyl)piperazin-1-yl)picolinamide]	< 200 nM
O=C1CCC(N2C(=O)c3cccc(NCc4ccc(CN5CCC(c6cc(F)cc(F)c6)CC5)cc4)c3C2=O)C(=O)N1 (stereo not shown) [Cpd 20, 4-(4-((4-(3,5-difluorophenyl)piperidin-1-yl)methyl)benzylamino)-2-(2,6-dioxopiperidin-3-yl)isoindoline-1,3-dione]	200 to 500 nM
Cc1cncc(N2CCN(Cc3ccc(CNc4cccc5c4C(=O)N(C4CCC(=O)NC4=O)C5=O)cc3)CC2)n1 (stereo not shown) [Cpd 186, 2-(2,6-dioxopiperidin-3-yl)-4-(4-((4-(6-methylpyrazin-2-yl)piperazin-1-yl)methyl)benzylamino)isoindoline-1,3-dione]	751 to 1000 nM
O=C1CCC(N2C(=O)c3cccc(NCc4ccc(CN5CC(N6CC7CCC(C6)O7)C5)cc4F)c3C2=O)C(=O)N1 (stereo not shown) [Cpd 225, 4-(4-((3-(8-oxa-3-azabicyclo[3.2.1]octan-3-yl)azetidin-1-yl)methyl)-2-fluorobenzylamino)-2-(2,6-dioxopiperidin-3-yl)isoindoline-1,3-dione]	< 200 nM
Cc1cc(CNc2cccc3c2C(=O)N(C2CCC(=O)NC2=O)C3=O)ccc1CN1CCCOCC1 (stereo not shown) [Cpd 244, 4-(4-((1,4-oxazepan-4-yl)methyl)-3-methylbenzylamino)-2-(2,6-dioxopiperidin-3-yl)isoindoline-1,3-dione]	501 to 750 nM
Cc1cc(CNc2cccc3c2C(=O)N(C2CCC(=O)NC2=O)C3=O)ccc1CN1CC(c2cccc(C#N)c2)C1 (stereo not shown) [Cpd 52, 3-(1-(4-((2-(2,6-dioxopiperidin-3-yl)-1,3-dioxoisoindolin-4-ylamino)methyl)-2-mtehylbenzyl)azetidin-3-yl)benzonitrile]	< 200 nM
CC1(C)CCC2(CCN(Cc3ccc(CNc4cccc5c4C(=O)N(C4CCC(=O)NC4=O)C5=O)c(F)c3)CC2)O1 (stereo not shown) [Cpd 145, 4-(4-((2,2-dimethyl-1-oxa-8-azaspiro[4.5]decan-8-yl)methyl)-2-fluorobenzylamino)-2-(2,6-dioxopiperidin-3-yl)isoindoline-1,3-dione]	< 200 nM
O=C1CCC(N2C(=O)c3cccc(NCc4ccc(CN5CCC(n6cccn6)CC5)cc4F)c3C2=O)C(=O)N1 (stereo not shown) [Cpd 107, 4-(4-((4-(1H-pyrazol-1-yl)piperidin-1-yl)methyl)-2-fluorobenzylamino)-2-(2,6-dioxopiperidin-3-yl)isoindoline-1,3-dione]	< 200 nM
O=C1CCC(N2C(=O)c3cccc(NCc4ccc(CN5CC6(CCOCC6)C5)cc4)c3C2=O)C(=O)N1 (stereo not shown) [Cpd 219, 4-(4-(7-oxa-2-azaspiro[3.5]nonan-2-ylmethyl)benzylamino)-2-(2,6-dioxopiperidin-3-yl)isoindoline-1,3-dione]	< 200 nM

The next lines start with the values.

IC50	Compound
< 200 nM	Cc1cc(CNc2cccc3c2C(=O)N(C2CCC(=O)NC2=O)C3=O)ccc1CN1CC2(CCCC2)C1 (stereo not shown) [Cpd 200, 4-(4-(2-azaspiro[3.4]octan-2-ylmethyl)-3-methylbenzylamino)-2-(2,6-dioxopiperidin-3-yl)isoindoline-1,3-dione]
< 200 nM	CC(C)(C)C1CCN(Cc2ccc(CNc3cccc4c3C(=O)N(C3CCC(=O)NC3=O)C4=O)cc2F)CC1 (stereo not shown) [Cpd 92, 4-(4-((4-tert-butylpiperidin-1-yl)methyl)-3-fluorobenzylamino)-2-(2,6-dioxopiperidin-3-yl)isoindoline-1,3-dione]
< 200 nM	Cc1cc(CNc2cccc3c2C(=O)N(C2CCC(=O)NC2=O)C3=O)ccc1CN1CC(N2CCOCC2(C)C)C1 (stereo not shown) [Cpd 238, 4-(4-((3-(3,3-dimethylmorpholino)azetidin-1-yl)methyl)-3-methylbenzylamino)-2-(2,6-dioxopiperidin-3-yl)isoindoline-1,3-dione]
751 to 1000 nM	O=C1CCC(N2C(=O)c3cccc(NCc4ccc(CN5CCC6(CCC6)C5)cc4)c3C2=O)C(=O)N1 (stereo not shown) [Cpd 73, 4-(4-(6-azaspiro[3.4]octan-6-ylmethyl)benzylamino)-2-(2,6-dioxopiperidin-3-yl)isoindoline-1,3-dione]
< 200 nM	CC1(C)CCC2(CCN(Cc3ccc(CNc4cccc5c4C(=O)N(C4CCC(=O)NC4=O)C5=O)cc3)CC2)O1 (stereo not shown) [Cpd 129, 4-(4-((2,2-dimethyl-1-oxa-8-azaspiro[4.5]decan-8-yl)methyl)benzylamino)-2-(2,6-dioxopiperidin-3-yl)isoindoline-1,3-dione]
< 200 nM	O=C1CCC(N2C(=O)c3cccc(NCc4ccc(CN5CC(N6CCCC6=O)C5)cc4F)c3C2=O)C(=O)N1 (stereo not shown) [Cpd 169, 2-(2,6-dioxopiperidin-3-yl)-4-(2-fluoro-4-((3-(2-oxopyrrolidin-1-yl)azetidin-1-yl)methyl)benzylamino)isoindoline-1,3-dione]
< 200 nM	O=C1CCC(N2C(=O)c3cccc(NCc4ccc(CN5CCC(c6ccccn6)CC5)cc4F)c3C2=O)C(=O)N1 (stereo not shown) [Cpd 166]
200 to 500 nM	Cc1nnc(N2CCN(Cc3ccc(CNc4cccc5c4C(=O)N(C4CCC(=O)NC4=O)C5=O)cc3)CC2)s1 (stereo not shown) [Cpd 193, 2-(2,6-dioxopiperidin-3-yl)-4-(4-((4-(5-methyl-1,3,4-thiadiazol-2-yl)piperazin-1-yl)methyl)benzylamino)isoindoline-1,3-dione]
< 200 nM	Cc1cc(CNc2cccc3c2C(=O)N(C2CCC(=O)NC2=O)C3=O)ccc1CN1CC(N2CCCC2)C1 (stereo not shown) [Cpd 217, 2-(2,6-dioxopiperidin-3-yl)-4-(3-methyl-4-((3-(pyrrolidin-1-yl)azetidin-1-yl)methyl)benzylamino)isoindoline-1,3-dione]
< 200 nM	CCOC1(C)CCN(Cc2ccc(CNc3cccc4c3C(=O)N(C3CCC(=O)NC3=O)C4=O)cc2)CC1 (stereo not shown) [Cpd 89, 2-(2,6-dioxopiperidin-3-yl)-4-(4-((4-ethoxy-4-methylpiperidin-1-yl)methyl)benzylamino)isoindoline-1,3-dione]
501 to 750 nM	N#Cc1cc(F)c(N2CCN(Cc3ccc(CNc4cccc5c4C(=O)N(C4CCC(=O)NC4=O)C5=O)cc3)CC2)c(Cl)c1 (stereo not shown) [Cpd 11, 3-chloro-4-(4-(4-((2-(2,6-dioxopiperidin-3-yl)-1,3-dioxoisoindolin-4-ylamino)methyl)benzyl)piperazin-1-yl)-5-fluorobenzonitrile]
< 200 nM	NC(=O)c1ccc(N2CCN(Cc3ccc(CNc4cccc5c4C(=O)N(C4CCC(=O)NC4=O)C5=O)cc3F)CC2)cn1 (stereo not shown) [Cpd 98, 5-(4-(4-((2-(2,6-dioxopiperidin-3-yl)-1,3-dioxoisoindolin-4-ylamino)methyl)-2-fluorobenzyl)piperazin-1-yl)picolinamide]
501 to 750 nM	NC(=O)c1cc(N2CCN(Cc3ccc(CNc4cccc5c4C(=O)N(C4CCC(=O)NC4=O)C5=O)cc3F)CC2)ccn1 (stereo not shown) [Cpd 191, 4-(4-(4-((2-(2,6-dioxopiperidin-3-yl)-1,3-dioxoisoindolin-4-ylamino)methyl)-2-fluorobenzyl)piperazin-1-yl)picolinamide]
< 200 nM	Cc1cc(N2CCN(Cc3ccc(CNc4cccc5c4C(=O)N(C4CCC(=O)NC4=O)C5=O)cc3)CC2)no1 (stereo not shown) [Cpd 199, 2-(2,6-dioxopiperidin-3-yl)-4-(4-((4-(5-methylisoxazol-3-yl)piperazin-1-yl)methyl)benzylamino)isoindoline-1,3-dione]
501 to 750 nM	CC1(C)COCCN1C1CN(Cc2ccc(CNc3cccc4c3C(=O)N(C3CCC(=O)NC3=O)C4=O)cc2)C1 (stereo not shown) [Cpd 239, 4-(4-((3-(3,3-dimethylmorpholino)azetidin-1-yl)methyl)benzylamino)-2-(2,6-dioxopiperidin-3-yl)isoindoline-1,3-dione]
< 200 nM	O=C1CCC(N2C(=O)c3cccc(NCc4ccc(CN5CCC6(CCOC6)CC5)cc4F)c3C2=O)C(=O)N1 (stereo not shown) [Cpd 231, 4-(4-(2-oxa-8-azaspiro[4.5]decan-8-ylmethyl)-2-fluorobenzylamino)-2-(2,6-dioxopiperidin-3-yl)isoindoline-1,3-dione]

Source: patent US11358952B2, “Substituted 4-aminoisoindoline-1,3-dione compounds, compositions thereof, and methods of treatment therewith” (Celgene Corporation, priority 2018, dated 2022)
